Results published in patent publication US20240158392A1 (Janssen Biotech, Inc., priority 2021, published 2024).

target: SIK2 (Homo sapiens, UniProt Q9H0K1); assay: SIK2 Enzymatic Assay High Version 2 (High ATP); format: biochemical; conditions: not given
Procedure, shortened: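 At room temperature, enzyme (6 nM, 2× final) was preincubated with compound for 30 min, then 6 mM ATP and 400 μM HDAC5tide (both 2× final) were added for 2 h. ADP formed was measured by ADP-Glo Max (2 h reagent, 1 h detection) using luminescence.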

Sequence of SIK2 (Q9H0K1 whole entry, species assumed): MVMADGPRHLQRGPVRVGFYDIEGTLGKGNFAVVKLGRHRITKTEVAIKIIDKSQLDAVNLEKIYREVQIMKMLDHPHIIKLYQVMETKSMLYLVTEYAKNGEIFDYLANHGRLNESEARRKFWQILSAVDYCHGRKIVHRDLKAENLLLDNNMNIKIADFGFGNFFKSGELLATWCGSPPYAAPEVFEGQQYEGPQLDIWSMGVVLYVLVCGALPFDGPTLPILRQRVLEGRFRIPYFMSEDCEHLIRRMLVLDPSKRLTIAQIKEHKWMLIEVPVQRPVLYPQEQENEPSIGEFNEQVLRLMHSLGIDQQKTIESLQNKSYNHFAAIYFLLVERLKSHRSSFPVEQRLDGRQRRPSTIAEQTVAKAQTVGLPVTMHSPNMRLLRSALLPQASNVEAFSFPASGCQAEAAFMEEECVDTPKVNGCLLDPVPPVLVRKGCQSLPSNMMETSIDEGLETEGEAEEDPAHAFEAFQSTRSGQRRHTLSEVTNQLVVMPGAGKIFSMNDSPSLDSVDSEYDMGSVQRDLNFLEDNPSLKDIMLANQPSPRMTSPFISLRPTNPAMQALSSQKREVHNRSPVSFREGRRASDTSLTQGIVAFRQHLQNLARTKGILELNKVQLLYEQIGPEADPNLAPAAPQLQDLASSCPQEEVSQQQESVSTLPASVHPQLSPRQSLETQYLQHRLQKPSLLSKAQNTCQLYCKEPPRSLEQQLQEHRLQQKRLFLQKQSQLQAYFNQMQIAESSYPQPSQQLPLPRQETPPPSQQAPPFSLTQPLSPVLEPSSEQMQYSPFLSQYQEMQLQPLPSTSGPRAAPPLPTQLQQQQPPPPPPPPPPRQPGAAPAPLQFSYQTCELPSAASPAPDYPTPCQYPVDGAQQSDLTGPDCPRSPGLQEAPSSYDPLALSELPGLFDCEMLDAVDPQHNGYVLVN

CNC(=O)c1ccc(Nc2cc3cc(-c4cc(C)ncc4O[C@H]4C[C@H]5COC[C@@H](C4)N5C(C)C)ccn3n2)nc1 [Example 531, 6-[[5-[5-[[(1S,5R)-9-isopropyl-3-oxa-9-azabicyclo[3.3.1]nonan-7-yl]oxy]-2-methyl-4-pyridyl]pyrazolo[1,5-a]pyridin-2-yl]amino]-N-methyl-pyridine-3-carboxamide] and Cc1cc(-c2ccn3nc(Nc4ccc(C(=O)NCC(C)(C)C#N)cn4)cc3c2)c(O[C@H]2C[C@H]3COC[C@@H](C2)N3)cn1 [Example 389, N-(2-cyano-2-methyl-propyl)-6-[[5-[2-methyl-5-[[(1S,5R,7s)-3-oxa-9-azabicyclo[3.3.1]nonan-7-yl]oxy]-4-pyridyl]pyrazolo[1,5-a]pyridin-2-yl]amino]pyridine-3-carboxamide] are within 1.5-fold of each other in IC50: 0.00144 µM for the first, 0.00102 µM for the second.

Compared with Cc1cc(-c2ccn3nc(Nc4cc(C)nc(C)n4)cc3c2)c(O[C@H]2C[C@H]3COC[C@@H](C2)N3C)cn1 [Example 417, N-(2,6-dimethylpyrimidin-4-yl)-5-[2-methyl-5-[[(1S,5R,7s)-9-methyl-3-oxa-9-azabicyclo[3.3.1]nonan-7-yl]oxy]-4-pyridyl]pyrazolo[1,5-a]pyridin-2-amine], Cc1cc(-c2ccn3nc(Nc4cnn(C)c4)cc3c2)c(O[C@H]2C[C@H]3COC[C@@H](C2)N3C)cn1 [Example 124] is higher in IC50: less than 0.000847 µM for the first, 0.00124 µM for the second.

Cc1cnc(Nc2cc3cc(-c4cc(C)ncc4O[C@H]4C[C@H]5COC[C@@H](C4)N5)ccn3n2)cn1 [Example 381, 5-[2-methyl-5-[[(1S,5R,7s)-3-oxa-9-azabicyclo[3.3.1]nonan-7-yl]oxy]-4-pyridyl]-N-(5-methylpyrazin-2-yl)pyrazolo[1,5-a]pyridin-2-amine] and Cc1cc(-c2ccn3nc(Nc4ccc(C(=O)NCC5CCOCC5)cn4)cc3c2)c(O[C@H]2C[C@H]3COC[C@@H](C2)N3)cn1 [Example 373, 6-[[5-[2-methyl-5-[[(1R,5S,7s)-3-oxa-9-azabicyclo[3.3.1]nonan-7-yl]oxy]-4-pyridyl]pyrazolo[1,5-a]pyridin-2-yl]amino]-N-(tetrahydropyran-4-ylmethyl)pyridine-3-carboxamide] cannot be ordered by IC50: less than 0.000847 µM for the first, less than 0.000847 µM for the second.

Going from Cc1cc(-c2ccn3nc(NC(=O)C4CC4)cc3c2)c(O[C@H]2C[C@@H](N)C2)cn1 [Example 464, N-(5-(5-((1s,3s)-3-aminocyclobutoxy)-2-methylpyridin-4-yl)pyrazolo[1,5-a]pyridin-2-yl)cyclopropanecarboxamide] to CCN1CC[C@H]1COc1cnc(C)cc1-c1ccn2nc(NC(=O)C3CC3)cc2c1 [Example 605, N-[5-[5-[[(2S)-1-ethylazetidin-2-yl]methoxy]-2-methyl-4-pyridyl]pyrazolo[1,5-a]pyridin-2-yl]cyclopropanecarboxamide], the IC50 rises from 0.0116 µM to 0.316 µM (27-fold).

In the case of Cc1cc(-c2ccn3nc(NC(=O)C4CC4)cc3c2)c(OCC2NCC23CCOCC3)cn1 (racemic) [Example 472, Racemic-N-[5-[2-methyl-5-(7-oxa-2-azaspiro[3.5]nonan-3-ylmethoxy)-4-pyridyl]pyrazolo[1,5-a]pyridin-2-yl]cyclopropanecarboxamide], the IC50 is reported as 0.0263 µM.

same assay, conditions: enzyme 6 nM, 6 mM ATP and 400 μM HDAC5tide (each 2× final concentration); 30 minutes pre-incubation, 2 hours; ADP-Glo Max luminescence; read-out: SIK2 high ATP IC50 (μM) (Test Example 2)

First: Cc1cc(-c2ccn3nc(Nc4cc(C(F)(F)F)c(C(=O)NC(C)C)cn4)cc3c2)c(OCC(C)(C)O)cn1 [Example 650, 6-[[5-[5-(2-hydroxy-2-methyl-propoxy)-2-methyl-4-pyridyl]pyrazolo[1,5-a]pyridin-2-yl]amino]-N-isopropyl-4-(trifluoromethyl)pyridine-3-carboxamide]
Second: Cc1cc(-c2ccn3nc(Nc4cc(C)nc(C(=O)NC5CC5)n4)cc3c2)c(OCC(C)(C)O)cn1 [Example 640, N-cyclopropyl-4-[[5-[5-(2-hydroxy-2-methyl-propoxy)-2-methyl-4-pyridyl]pyrazolo[1,5-a]pyridin-2-yl]amino]-6-methyl-pyrimidine-2-carboxamide]
The IC50 of the first is 2.9-fold higher: 0.0868 µM for the first, 0.0295 µM for the second. The second is the more potent here.

First: Cc1cc(-c2ccn3nc(Nc4cc(C)nc(N5CCOCC5)n4)cc3c2)c(OCC(C)(C)O)cn1 [Example 286, 2-methyl-1-[[6-methyl-4-[2-[(6-methyl-2-morpholino-pyrimidin-4-yl)amino]pyrazolo[1,5-a]pyridin-5-yl]-3-pyridyl]oxy]propan-2-ol]
Second: Cc1cc(-c2ccn3nc(Nc4cc(C)nc(C)n4)cc3c2)c(OCC(C)(C)C#N)cn1 [Example 262, 3-[[4-[2-[(2,6-dimethylpyrimidin-4-yl)amino]pyrazolo[1,5-a]pyridin-5-yl]-6-methyl-3-pyridyl]oxy]-2,2-dimethyl-propanenitrile]
The IC50 of the first is 7.2-fold higher: 0.0166 µM for the first, 0.00231 µM for the second.

Going from Cn1cnc(Nc2cc3cc(-c4cc(OC(F)F)ncc4OCC(C)(C)C#N)ccn3n2)n1 [Example 699, 3-[[6-(difluoromethoxy)-4-[2-[(1-methyl-1,2,4-triazol-3-yl)amino]pyrazolo[1,5-a]pyridin-5-yl]-3-pyridyl]oxy]-2,2-dimethyl-propanenitrile] to Cc1cc(Nc2cc3cc(-c4cc(OC(F)F)ncc4OCC(C)(C)C#N)ccn3n2)nc(C(C)(C)C)n1 [Example 703, 3-[[4-[2-[(2-tert-butyl-6-methyl-pyrimidin-4-yl)amino]pyrazolo[1,5-a]pyridin-5-yl]-6-(difluoromethoxy)-3-pyridyl]oxy]-2,2-dimethyl-propanenitrile], the IC50 rises from 0.0111 µM to 0.0699 µM (6.3-fold). The first is the more potent here.

First: Cc1cc(-c2ccn3nc(NC(=O)C4CC4)cc3c2)c(OC[C@@]2(F)CCNC2)cn1 (single isomer, unassigned) [Example 447, (*R)—N-[5-[5-[(3-fluoropyrrolidin-3-yl)methoxy]-2-methyl-4-pyridyl]pyrazolo[1,5-a]pyridin-2-yl]cyclopropanecarboxamide]
Second: Cc1cc(-c2ccn3nc(NC(=O)C4CC4)cc3c2)c(OC[C@@]2(O)CCN(C)C2)cn1 (single isomer, unassigned) [Example 522, (*R)—N-[5-[5-[(3-hydroxy-1-methyl-pyrrolidin-3-yl)methoxy]-2-methyl-4-pyridyl]pyrazolo[1,5-a]pyridin-2-yl]cyclopropanecarboxamide]
The IC50 of the first is 1.9-fold higher: 0.0246 µM for the first, 0.013 µM for the second.

Compared with Cc1cc(Nc2cc3cc(-c4cc(OC(F)F)ncc4OCC4(C#N)CC4)ccn3n2)nc(C)n1 [Example 720, 1-[[6-(difluoromethoxy)-4-[2-[(2,6-dimethylpyrimidin-4-yl)amino]pyrazolo[1,5-a]pyridin-5-yl]-3-pyridyl]oxymethyl]cyclopropanecarbonitrile], Cc1cc(Nc2cc3cc(-c4cc(OC(F)F)ncc4OC[C@H]4CC(=O)NC4(C)C)ccn3n2)nc(C)n1 (single isomer, unassigned) [Example 732, (*S)-4-[[6-(difluoromethoxy)-4-[2-[(2,6-dimethylpyrimidin-4-yl)amino]pyrazolo[1,5-a]pyridin-5-yl]-3-pyridyl]oxymethyl]-5,5-dimethyl-pyrrolidin-2-one] is 5.8-fold lower in IC50: 0.00954 µM for the first, 0.00164 µM for the second.

First: Cc1cc(-c2ccn3nc(Nc4cc(C)nc(C)n4)cc3c2)c(O[C@H]2CC[C@@H](C#N)CC2)cn1 [Example 556, (1s,4s)-4-((4-(2-((2,6-dimethylpyrimidin-4-yl)amino)pyrazolo[1,5-a]pyridin-5-yl)-6-methylpyridin-3-yl)oxy)cyclohexane-1-carbonitrile]
Second: COCc1nc(C)cc(Nc2cc3cc(-c4cc(C)ncc4O[C@H]4CC[C@H](O)CC4)ccn3n2)n1 [Example 225, (1r,4r)-4-((4-(2-((2-(methoxymethyl)-6-methylpyrimidin-4-yl)amino)pyrazolo[1,5-a]pyridin-5-yl)-6-methylpyridin-3-yl)oxy)cyclohexan-1-ol]
The IC50 of the first is 11-fold higher: 0.0371 µM for the first, 0.00343 µM for the second.

First: CC#Cc1cc(-c2ccn3nc(Nc4ccn(C)n4)cc3c2)c(O[C@H]2CC[C@H](O)CC2)cn1 [Example 187, trans-4-[[4-[2-[(1-methylpyrazol-3-yl)amino]pyrazolo[1,5-a]pyridin-5-yl]-6-prop-1-ynyl-3-pyridyl]oxy]cyclohexanol]
Second: Cc1cc(-c2ccn3nc(NC(=O)C4CC4)cc3c2)c(O[C@@H]2CCC[C@H](O)C2)cn1 (single isomer, unassigned) [Example 602, (1*R, 3*S)—N-[5-[5-(3-hydroxycyclohexoxy)-2-methyl-4-pyridyl]pyrazolo[1,5-a]pyridin-2-yl]cyclopropanecarboxamide]
The IC50 of the first is 28-fold lower: 0.00407 µM for the first, 0.113 µM for the second. The first is the more potent here.

Cc1cc(-c2ccn3nc(Nc4cc(C)nc(C)n4)cc3c2)c(OC[C@@]2(O)CCOC2)cn1 (single isomer, unassigned) [Example 203, (*R)-3-(((4-(2-((2,6-dimethylpyrimidin-4-yl)amino)pyrazolo[1,5-a]pyridin-5-yl)-6-methylpyridin-3-yl)oxy)methyl)tetrahydrofuran-3-ol] and Cc1cc(-c2ccn3nc(Nc4cc(C)nc(C)n4)cc3c2)c(OC[C@@H]2CCC3(CCCC3)O2)cn1 (single isomer, unassigned) [Example 230, (*S)—N-(2,6-dimethylpyrimidin-4-yl)-5-[2-methyl-5-(9-oxaspiro[4.4]nonan-8-ylmethoxy)-4-pyridyl]pyrazolo[1,5-a]pyridin-2-amine] are within 1.5-fold of each other in IC50: 0.0469 µM for the first, 0.0377 µM for the second.

First: Cc1cc(-c2ccn3nc(Nc4cc(C)nc(C)n4)cc3c2)c(OC[C@H]2COC3(CCCC3)O2)cn1 (single isomer, unassigned) [Example 544, (*S)—N-(2,6-dimethylpyrimidin-4-yl)-5-[5-(6,9-dioxaspiro[4.4]nonan-8-ylmethoxy)-2-methyl-4-pyridyl]pyrazolo[1,5-a]pyridin-2-amine]
Second: Cc1cc(-c2ccn3nc(Nc4cnccn4)cc3c2)c(OC[C@H]2CNCCO2)cn1 [Example 430, 5-[2-methyl-5-[[(2R)-morpholin-2-yl]methoxy]-4-pyridyl]-N-pyrazin-2-yl-pyrazolo[1,5-a]pyridin-2-amine]
The IC50 of the first is 1.8-fold higher: 0.0147 µM for the first, 0.00801 µM for the second. The second is the more potent here.

Cc1cc(Nc2cc3cc(-c4cc(OC(F)F)ncc4OCC(C)(C)C(=O)N(C)C)ccn3n2)nc(C)n1 [Example 728, 3-[[6-(difluoromethoxy)-4-[2-[(2,6-dimethylpyrimidin-4-yl)amino]pyrazolo[1,5-a]pyridin-5-yl]-3-pyridyl]oxy]-N,N,2,2-tetramethyl-propanamide] showed an IC50 of 0.0049 µM.
